# Source: US8685997B2, “Camptothecin derivatives and their use” (Shanghai Institute of Materia Medica, Chinese Academy of …, priority 2006, dated 2014)
# Where two headings read alike, the source gives them in different places.
# What was measured:
# A549 = experiment: SRB protein staining tumor cell proliferation assay; assay type: cell-based; conditions: read-out: IC50(mean ± SD)
# Text: (§1) 1. Sulfonyl rhodamine B (SRB) protein staining assays were used to detect the inhibition of tumor cell proliferation of the compound.
# BEL-7402 = experiment: as above; assay type: cell-based; conditions: read-out: IC50(mean ± SD)
# Text: as §1
# HCT-15 = experiment: as above; assay type: cell-based; conditions: read-out: IC50(mean ± SD)
# Text: as §1
# HL-60 = experiment: as above; assay type: cell-based; conditions: read-out: IC50(mean ± SD)
# Text: as §1
# HO-8910 = experiment: as above; assay type: cell-based; conditions: read-out: IC50(mean ± SD)
# Text: as §1
# MCF-7 = experiment: as above; assay type: cell-based
# Text: as §1
# MDA-MB-435 = experiment: as above; assay type: cell-based; conditions: read-out: IC50(mean ± SD)
# Text: as §1
# MDA-MB-468 = experiment: as above; assay type: cell-based; conditions: read-out: IC50(mean ± SD)
# Text: as §1
# MKN-28 = experiment: as above; assay type: cell-based; conditions: read-out: IC50(mean ± SD)
# Text: as §1
# NCI-H23 = experiment: as above; assay type: cell-based; conditions: read-out: IC50(mean ± SD)
# Text: as §1
# SGC-7901 = experiment: as above; assay type: cell-based; conditions: read-out: IC50(mean ± SD)
# Text: as §1
# SMMC-7721 = experiment: as above; assay type: cell-based; conditions: read-out: IC50(mean ± SD)
# Text: as §1
# HCT-116 = experiment: as above; assay type: cell-based, human; conditions: read-out: IC50(mean ± SD)
# Text: as §1
# [1] = tested on: thirteen tumor cell lines; experiment: SRB proliferation assay, panel of thirteen tumor cell lines; assay type: cell-based; conditions: mean over thirteen tumor cell lines
# Text: as §1
# [2] = tested on: human lung cancer SPC-A4 xenografts; experiment: Human lung cancer SPC-A4 xenografts in nude mice; conditions: for Body weight (g) At the beginning / Body weight (g) At the end / RTV / T/C (%) / TV (mm^3) d0 / TV (mm^3) d20: q3w × 3, i.v.
# [3] = tested on: human rectal cancer HCT-116 xenografts; experiment: Human rectal cancer HCT-116 xenografts in nude mice; conditions: for Body weight (g) At the beginning / Body weight (g) At the end / RTV / T/C (%) / TV (mm^3) d0 / TV (mm^3) d21: q3w × 3, i.v.
# K562 cell line = experiment: Anti-multidrug resistance evaluation, parent cell line; assay type: cell-based; conditions: Homo sapiens; K562 cells
# Text: (§2) 2. The multidrug resistance cell line K562/A02 and its parent K562 cell line were used to evaluate the anti-multidrug resistance of the CPT-4 active metabolite.
# [4] = tested on: multidrug resistance cell line K562/A02; experiment: Anti-multidrug resistance evaluation, multidrug resistance cell line; assay type: cell-based
# Text: as §2
# [5] = intravenously, three times per week
smiles,measurement,setting,value
"CC[C@@]1(O)C(=O)OCc2c1cc1n(c2=O)Cc2cc3c([N+](=O)[O-])cccc3nc2-1 [9NC, 9-nitrocamptothecin]",IC50,A549,31.9 ± 3.72 nM
same,IC50,BEL-7402; BEL-7402,58.8 ± 10.7 nM
same,IC50,HCT-15,9.59 ± 0.48 nM
same,IC50,HL-60,20.6 ± 2.56 nM
same,IC50,HO-8910,227 ± 40.8 nM
same,IC50,MCF-7; read-out: IC50(mean ± SD),62.6 ± 19.8 nM
same,IC50,MDA-MB-435,18.5 ± 6.14 nM
same,IC50,MDA-MB-468,64.9 ± 29.6 nM
same,IC50,MKN-28,116 ± 6.48 nM
same,IC50,NCI-H23,70.3 ± 14.6 nM
same,IC50,SGC-7901,98 ± 6.87 nM
same,IC50,SMMC-7721,1380 ± 25 nM
same,IC50,HCT-116,13.7 ± 1.4 nM
same,IC50,[1],167 nM
"C=CCc1c(OC(=O)N2CCC(N3CCCCC3)CC2)ccc2nc3c(cc12)Cn1c-3cc2c(c1=O)COC(=O)[C@]2(O)CC [CPT-4, 10-((4′-piperidylpiperidine)carbonyloxy)-9-allylcamptothecin]",Body weight (g) At the beginning,[2]; 3.75 mg/kg,17.8 g
same,Body weight (g) At the end,[2]; 3.75 mg/kg,19.3 g
same,RTV,[2]; 3.75 mg/kg,19 ± 5.5
same,T/C (%),[2]; 3.75 mg/kg,41.4%
same,TV (mm^3) d0,[2]; 3.75 mg/kg,104 ± 22 mm^3
same,TV (mm^3) d20,[2]; 3.75 mg/kg,1931 ± 533 mm^3
same,Body weight (g) At the beginning,[2]; 7.5 mg/kg,17.5 g
same,Body weight (g) At the end,[2]; 7.5 mg/kg,19.3 g
same,RTV,[2]; 7.5 mg/kg,14 ± 5.5
same,T/C (%),[2]; 7.5 mg/kg,31.4%
same,TV (mm^3) d0,[2]; 7.5 mg/kg,108 ± 61 mm^3
same,TV (mm^3) d20,[2]; 7.5 mg/kg,1153 ± 172 mm^3
same,Body weight (g) At the beginning,[2]; 15 mg/kg,17.3 g
same,Body weight (g) At the end,[2]; 15 mg/kg,17.5 g
same,RTV,[2]; 15 mg/kg,0.4 ± 0.7
same,T/C (%),[2]; 15 mg/kg,0.88%
same,TV (mm^3) d0,[2]; 15 mg/kg,106 ± 28 mm^3
same,TV (mm^3) d20,[2]; 15 mg/kg,55 ± 99 mm^3
same,inhibition of growth of tumor xenografts,[2]; [5],can significantly inhibit the growth of tumor xenografts
same,xenograft growth inhibition compared with CPT-11,[2]; [5],equivalent to that of CPT-11
same,Body weight (g) At the beginning,[3]; 3.75 mg/kg,20.2 g
same,Body weight (g) At the end,[3]; 3.75 mg/kg,17.0 g
same,RTV,[3]; 3.75 mg/kg,8.4 ± 2.0
same,T/C (%),[3]; 3.75 mg/kg,18.9%
same,TV (mm^3) d0,[3]; 3.75 mg/kg,92 ± 27 mm^3
same,TV (mm^3) d21,[3]; 3.75 mg/kg,720 ± 75 mm^3
same,Body weight (g) At the beginning,[3]; 7.5 mg/kg,19.5 g
same,Body weight (g) At the end,[3]; 7.5 mg/kg,17.2 g
same,RTV,[3]; 7.5 mg/kg,3.8 ± 2.2
same,T/C (%),[3]; 7.5 mg/kg,8.31%
same,TV (mm^3) d0,[3]; 7.5 mg/kg,94 ± 30 mm^3
same,TV (mm^3) d21,[3]; 7.5 mg/kg,289 ± 108 mm^3
same,Body weight (g) At the beginning,[3]; 15 mg/kg,20.3 g
same,Body weight (g) At the end,[3]; 15 mg/kg,17.8 g
same,RTV,[3]; 15 mg/kg,1.8 ± 0.5
same,T/C (%),[3]; 15 mg/kg,3.99%
same,TV (mm^3) d0,[3]; 15 mg/kg,100 ± 20 mm^3
same,TV (mm^3) d21,[3]; 15 mg/kg,172 ± 51 mm^3
same,inhibition of growth of tumor xenografts,[3]; [5],can significantly inhibit the growth of tumor xenografts
same,xenograft growth inhibition compared with CPT-11,[3]; [5],equivalent to that of CPT-11
"CCc1c2c(nc3ccc(OC(=O)N4CCC(N5CCCCC5)CC4)cc13)-c1cc3c(c(=O)n1C2)COC(=O)[C@]3(O)CC [CPT-11, Irinotecan]",Body weight (g) At the beginning,[2]; 15 mg/kg,18.2 g
same,Body weight (g) At the end,[2]; 15 mg/kg,18.7 g
same,RTV,[2]; 15 mg/kg,0.5 ± 0.5
same,TV (mm^3) d0,[2]; 15 mg/kg,121 ± 34 mm^3
same,TV (mm^3) d20,[2]; 15 mg/kg,55 ± 39 mm^3
same,Body weight (g) At the end,[3]; 15 mg/kg,18.3 g
same,RTV,[3]; 15 mg/kg,1.9 ± 1.1
same,TV (mm^3) d0,[3]; 15 mg/kg,101 ± 60 mm^3
same,TV (mm^3) d21,[3]; 15 mg/kg,171 ± 86 mm^3
CCc1c2c(nc3ccc(O)cc13)-c1cc3c(c(=O)n1C2)COC(=O)[C@]3(O)CC [SN38],IC50,A549,5.9 ± 1.61 nM
same,IC50,BEL-7402; BEL-7402,136 ± 34.7 nM
same,IC50,HCT-15,6.13 ± 4.07 nM
same,IC50,HL-60,6.7 ± 1.26 nM
same,IC50,HO-8910,1120 ± 171 nM
same,IC50,MCF-7; read-out: IC50(mean ± SD),73 ± 15.6 nM
same,IC50,MDA-MB-435,3.42 ± 1.53 nM
same,IC50,MDA-MB-468,95.6 ± 36.9 nM
same,IC50,MKN-28,303 ± 56 nM
same,IC50,NCI-H23,234 ± 116 nM
same,IC50,SGC-7901,465 ± 75.3 nM
same,IC50,SMMC-7721,379 ± 66.4 nM
same,IC50,HCT-116,12.9 ± 5.4 nM
same,IC50,[1],218 nM
"CC[C@@]1(O)C(=O)OCc2c1cc1n(c2=O)Cc2cc3c(CN(C)C)c(O)ccc3nc2-1 [TPT, Topotecan]",IC50,A549; Homo sapiens,28.1 ± 6.8 nM
same,IC50,"BEL-7402; Homo sapiens, Bel-7402",420 ± 79.7 nM
same,IC50,HCT-15; Homo sapiens,14.4 ± 4.41 nM
same,IC50,HL-60; Homo sapiens,23.3 ± 1.32 nM
same,IC50,HO-8910,1380 ± 44.4 nM
same,IC50,"MCF-7; Homo sapiens, MCF7, read-out: IC50(mean ± SD)",387 ± 45.6 nM
same,IC50,MDA-MB-435; Homo sapiens,49.7 ± 6.05 nM
same,IC50,MDA-MB-468; Homo sapiens,176 ± 97.5 nM
same,IC50,MKN-28; Homo sapiens,412 ± 188 nM
same,IC50,NCI-H23; Homo sapiens,122 ± 36.3 nM
same,IC50,SGC-7901; Homo sapiens,489 ± 96.5 nM
same,IC50,SMMC-7721; Homo sapiens,1380 ± 172 nM
same,IC50,HCT-116; Homo sapiens,38 ± 2.19 nM
same,IC50,[1],379 nM
COc1cccc2c1C(=O)c1c(O)c3c(c(O)c1C2=O)C[C@@](O)(C(=O)CO)C[C@@H]3O[C@H]1C[C@H](N)[C@H](O)[C@H](C)O1 [adriamycin],IC50,K562 cell line,493 nM
same,IC50,"[4]; Homo sapiens, K562/A02 cells",69100 nM
same,Resistance Factor (RF),[4]; K562/A02 versus K562,140.24
